Article PMC6249039 (Journal of medicinal chemistry, 2018)

Target: influenza PA endonuclease (PAN) (Influenza A virus, UniProt C3W5S0, DEL52-63/E64G)
Assay type: biochemical, influenza A (A/California/04/2009) H1N1

| Structure (SMILES) | Change in activity with presence or absence of excess metal ions |
| --- | --- |
| Cc1cc(=O)c(O)c(C(=O)O)o1 [Compound 1, 3-Hydroxy-6-methyl-4-oxo-4H-pyran-2-carboxylic acid] | no change |
| Cc1cc(=O)c(O)c(C(=O)O)[nH]1 [Compound 17, 3-Hydroxy-6-methyl-4-oxo-1,4-dihydropyridine-2-carboxylic acid] | no change |
